pEC50: −log10 of the molar value.
Key:
Assay in all cases: hOR assay (GloSensor cAMP luciferase), dose-response
Type in all cases: cell-based
OR2J3 = molecular target: T1, OR2J3 (Homo sapiens, UniProt O76001); settings: OR2J3, with and without the TAR-Tat system
T1 construct: Lucy tag (N); FLAG (N); Rho tag (N); expressed in transfected cells; host or cells: Flp-In T-REx-293 cells stably expressing RTP1S, Gαolf and Ric8-b
T1 sequence (O76001 1-311): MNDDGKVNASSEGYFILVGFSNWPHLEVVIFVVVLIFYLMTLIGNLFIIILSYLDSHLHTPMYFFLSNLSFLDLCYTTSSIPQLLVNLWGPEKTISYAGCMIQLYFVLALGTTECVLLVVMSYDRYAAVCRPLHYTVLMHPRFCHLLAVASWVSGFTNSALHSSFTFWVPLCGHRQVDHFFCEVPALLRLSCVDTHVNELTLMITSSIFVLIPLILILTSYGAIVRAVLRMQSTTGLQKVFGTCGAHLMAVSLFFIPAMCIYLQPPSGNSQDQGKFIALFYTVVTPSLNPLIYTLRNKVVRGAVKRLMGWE

OR1A1 = molecular target: T2, OR1A1 (Homo sapiens, UniProt Q9P1Q5)
T2 construct: Lucy tag (N); FLAG (N); Rho tag (N); expressed in transfected cells; host or cells: Flp-In T-REx-293 cells stably expressing RTP1S, Gαolf and Ric8-b
T2 sequence (Q9P1Q5 1-309): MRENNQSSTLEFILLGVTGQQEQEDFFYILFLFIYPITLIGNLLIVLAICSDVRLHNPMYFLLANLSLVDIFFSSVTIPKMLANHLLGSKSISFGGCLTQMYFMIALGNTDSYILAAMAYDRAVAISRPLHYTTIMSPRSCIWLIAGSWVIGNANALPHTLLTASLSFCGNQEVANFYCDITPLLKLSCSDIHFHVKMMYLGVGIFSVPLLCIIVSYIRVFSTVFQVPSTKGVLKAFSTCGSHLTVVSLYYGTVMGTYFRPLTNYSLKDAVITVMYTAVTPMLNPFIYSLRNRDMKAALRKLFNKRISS

OR10H3 = molecular target: T3, OR10H3 (Homo sapiens, UniProt O60404); settings: OR10H3, with or without the TAR-Tat system
T3 construct: Lucy tag (N); expressed in transfected cells; host or cells: Flp-In T-REx-293 cells stably expressing RTP1S, Gαolf and Ric8-b
T3 sequence (O60404 1-316): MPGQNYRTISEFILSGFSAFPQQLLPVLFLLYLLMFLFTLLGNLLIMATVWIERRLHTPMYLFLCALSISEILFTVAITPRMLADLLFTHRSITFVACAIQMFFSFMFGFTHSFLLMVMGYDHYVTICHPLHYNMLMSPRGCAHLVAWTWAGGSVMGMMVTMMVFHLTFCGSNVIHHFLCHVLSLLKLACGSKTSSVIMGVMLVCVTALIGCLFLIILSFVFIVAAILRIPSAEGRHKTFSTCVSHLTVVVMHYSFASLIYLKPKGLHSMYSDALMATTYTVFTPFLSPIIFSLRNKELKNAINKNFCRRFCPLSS

OR10A2 = molecular target: T4, OR10A2 (Homo sapiens, UniProt Q9H208); settings: OR10A2, with or without the TAR-Tat system
T4 construct: Lucy tag (N); expressed in transfected cells; host or cells: Flp-In T-REx-293 cells stably expressing RTP1S, Gαolf and Ric8-b
T4 sequence (Q9H208 1-303): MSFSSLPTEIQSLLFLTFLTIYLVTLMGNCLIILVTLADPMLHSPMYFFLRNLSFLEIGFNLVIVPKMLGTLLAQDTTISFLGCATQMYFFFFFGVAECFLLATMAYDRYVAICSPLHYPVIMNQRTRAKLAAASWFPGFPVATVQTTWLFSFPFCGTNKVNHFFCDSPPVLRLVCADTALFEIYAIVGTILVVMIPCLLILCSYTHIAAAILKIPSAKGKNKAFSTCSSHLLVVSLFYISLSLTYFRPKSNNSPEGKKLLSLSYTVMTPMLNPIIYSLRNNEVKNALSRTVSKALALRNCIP

OR8B4 = molecular target: T5, OR8B4 (Homo sapiens, UniProt Q96RC9); settings: OR8B4, with or without the TAR-Tat system
T5 construct: Lucy tag (N); FLAG (N); Rho tag (N); expressed in transfected cells; host or cells: Flp-In T-REx-293 cells stably expressing RTP1S, Gαolf and Ric8-b
T5 sequence (Q96RC9 1-309): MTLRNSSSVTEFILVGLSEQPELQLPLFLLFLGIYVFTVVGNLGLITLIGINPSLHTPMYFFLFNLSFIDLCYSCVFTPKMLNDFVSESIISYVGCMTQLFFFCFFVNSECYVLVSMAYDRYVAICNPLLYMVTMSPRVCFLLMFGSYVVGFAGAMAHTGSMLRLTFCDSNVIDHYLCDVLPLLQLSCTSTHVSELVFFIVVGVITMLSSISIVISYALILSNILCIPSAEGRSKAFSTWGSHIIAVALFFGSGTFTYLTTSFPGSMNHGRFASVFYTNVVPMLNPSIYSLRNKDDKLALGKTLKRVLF

CCCCCC=O [n-hexanal]
concentration-dependent response to n-hexanal (OR2J3): concentration-dependent responses only with the TAR-Tat system
concentration-dependent response to n-hexanal (OR1A1; OR1A1, with and without the TAR-Tat system): concentration-dependent responses only with the TAR-Tat system
pEC50 (OR1A1; OR1A1/pHEK (with TAR-Tat system), read-out: EC50 of n-hexanal concentration-response relationship): 3.00
concentration-dependent response to n-hexanal (OR10H3): no concentration-dependent response
concentration-dependent response to n-hexanal (OR10A2): no concentration-dependent response
concentration-dependent response to n-hexanal (OR8B4): no concentration-dependent response
